Laboratory results: patent US20240262804A1, “NITROGEN-CONTAINING HETEROCYCLIC KETONES, PREPARATION METHODS AND MEDICINAL USES THEREOF” (Hansoh Bio LLC, priority 2021, published 2024)
Marks after values point to notes of the source that are not given here. One block for each compound: values may come before it.

Experiments:
bovine cardiac myosin = bovine cardiac myosin (Bos taurus (Bovine), UniProt Q9BE39); experiment: Myosin inhibitory potency: PK/LDH-coupled ATPase assay on bovine skinned cardiac myofibrils; assay type: biochemical; conditions: pCa=6.25, 50 μM ATP, 25° C., read-out: myosin inhibition activity IC50
bovine cardiac myosin, sequence (Q9BE39 whole entry): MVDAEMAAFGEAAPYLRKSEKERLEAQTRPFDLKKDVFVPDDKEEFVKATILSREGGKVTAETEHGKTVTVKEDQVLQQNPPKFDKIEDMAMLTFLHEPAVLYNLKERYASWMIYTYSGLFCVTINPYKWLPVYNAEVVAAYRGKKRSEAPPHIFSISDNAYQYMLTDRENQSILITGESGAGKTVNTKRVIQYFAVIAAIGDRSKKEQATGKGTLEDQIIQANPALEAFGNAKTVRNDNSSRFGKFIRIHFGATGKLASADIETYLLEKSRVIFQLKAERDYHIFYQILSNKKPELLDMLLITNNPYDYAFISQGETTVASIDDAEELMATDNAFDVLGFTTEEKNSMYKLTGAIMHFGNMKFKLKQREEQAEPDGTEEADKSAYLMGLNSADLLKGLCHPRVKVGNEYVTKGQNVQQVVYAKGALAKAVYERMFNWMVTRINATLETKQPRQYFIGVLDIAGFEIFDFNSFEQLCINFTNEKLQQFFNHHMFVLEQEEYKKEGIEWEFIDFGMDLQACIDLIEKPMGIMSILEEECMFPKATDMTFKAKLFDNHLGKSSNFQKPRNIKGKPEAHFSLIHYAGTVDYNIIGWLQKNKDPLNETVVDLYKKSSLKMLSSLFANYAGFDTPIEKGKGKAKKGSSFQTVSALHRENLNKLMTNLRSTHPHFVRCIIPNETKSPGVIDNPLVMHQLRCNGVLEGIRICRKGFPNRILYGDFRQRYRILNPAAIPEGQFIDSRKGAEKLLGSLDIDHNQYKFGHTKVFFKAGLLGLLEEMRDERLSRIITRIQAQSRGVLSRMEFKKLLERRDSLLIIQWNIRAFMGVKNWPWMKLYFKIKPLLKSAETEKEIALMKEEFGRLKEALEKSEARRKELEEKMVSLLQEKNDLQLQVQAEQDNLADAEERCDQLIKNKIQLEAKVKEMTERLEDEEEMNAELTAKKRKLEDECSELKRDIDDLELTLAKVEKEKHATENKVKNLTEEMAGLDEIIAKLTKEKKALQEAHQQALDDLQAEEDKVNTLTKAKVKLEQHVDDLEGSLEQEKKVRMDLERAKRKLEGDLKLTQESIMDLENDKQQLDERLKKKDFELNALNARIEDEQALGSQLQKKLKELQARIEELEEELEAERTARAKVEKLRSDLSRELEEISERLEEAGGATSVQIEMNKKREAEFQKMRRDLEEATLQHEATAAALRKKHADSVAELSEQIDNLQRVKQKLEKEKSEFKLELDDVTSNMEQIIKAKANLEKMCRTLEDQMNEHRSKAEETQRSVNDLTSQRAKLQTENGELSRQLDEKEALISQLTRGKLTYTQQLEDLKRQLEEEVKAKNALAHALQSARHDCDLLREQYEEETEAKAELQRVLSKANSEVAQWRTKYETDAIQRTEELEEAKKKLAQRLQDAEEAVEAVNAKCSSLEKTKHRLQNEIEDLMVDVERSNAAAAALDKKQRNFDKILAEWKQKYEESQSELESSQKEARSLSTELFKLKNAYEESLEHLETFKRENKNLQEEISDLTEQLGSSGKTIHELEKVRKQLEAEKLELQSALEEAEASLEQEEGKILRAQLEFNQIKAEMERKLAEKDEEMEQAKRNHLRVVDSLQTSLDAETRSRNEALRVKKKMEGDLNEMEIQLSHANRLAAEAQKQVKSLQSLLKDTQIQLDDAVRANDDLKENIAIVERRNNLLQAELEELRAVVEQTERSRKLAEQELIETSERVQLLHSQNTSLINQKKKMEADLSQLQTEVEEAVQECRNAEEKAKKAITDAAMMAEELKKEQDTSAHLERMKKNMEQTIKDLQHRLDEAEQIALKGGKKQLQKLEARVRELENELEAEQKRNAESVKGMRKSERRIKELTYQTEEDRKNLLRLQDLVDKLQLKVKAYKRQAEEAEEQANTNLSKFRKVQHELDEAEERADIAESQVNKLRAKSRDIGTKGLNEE
bovine cardiac myosin, sequence (P85100 whole entry partner): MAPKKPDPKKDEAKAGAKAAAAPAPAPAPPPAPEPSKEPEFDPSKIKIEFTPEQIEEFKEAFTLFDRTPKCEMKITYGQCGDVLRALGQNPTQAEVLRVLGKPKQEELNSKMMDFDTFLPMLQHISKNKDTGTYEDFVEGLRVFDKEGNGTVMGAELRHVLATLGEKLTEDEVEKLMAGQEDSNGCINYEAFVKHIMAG
bovine cardiac myosin, sequence (Q3SZE5 whole entry partner): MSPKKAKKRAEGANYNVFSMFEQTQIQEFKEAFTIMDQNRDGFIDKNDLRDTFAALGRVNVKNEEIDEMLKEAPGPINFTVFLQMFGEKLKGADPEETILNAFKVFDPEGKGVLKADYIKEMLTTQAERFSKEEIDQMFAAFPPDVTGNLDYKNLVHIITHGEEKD
Procedure, shortened: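 Bovine left-ventricle skinned myofibrils (1 mg/mL) in PM12 buffer pH 6.8 at pCa 6.25, 50 μM ATP, PK/LDH-coupled NADH depletion read at 340 nm, 25 °C.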

[1] = target: bovine skinned cardiac myofibrils (myosin) (Bos taurus (Bovine), UniProt Q9BE39); experiment: Myosin inhibitory potency comparison: ATPase assay, cardiac myofibrils; assay type: biochemical; conditions: pCa=6.25
bovine skinned cardiac myofibrils (myosin), sequence (Q9BE39 whole entry): as the sequence (Q9BE39 whole entry) above
bovine skinned cardiac myofibrils (myosin), sequence (P85100 whole entry partner): as the sequence (P85100 whole entry partner) above
bovine skinned cardiac myofibrils (myosin), sequence (Q3SZE5 whole entry partner): as the sequence (Q3SZE5 whole entry partner) above
Description: (§1) In our experiments, bovine skinned cardiac myofibrils were isolated from the frozen bovine left ventricle as myosin's source in the ATPase assay. The calcium concentration that achieves a 50% (pCa50 or pCa=6.25) activation of the myofibril system was chosen as the final condition for assessing the activation activity according to the literature (DOI: 10.1074/jbc.M117.776815). Myofibrils ATPase activity was measured in a buffered solution containing 12 mM PIPES (piperazine-N, N′-bis(2-ethane sulfonic acid) and 2 mM magnesium chloride at pH 6.8 (PM12 buffer). Final assay conditions were 1 mg/mL of bovine cardiac myofibrils, 1:20 of stock PK/LDH (Sigma-Aldrich, Cat No. P0294-5X5ML), 50 μM ATP, 1 mM DTT (dithiothreitol), 0.75 mM NADH, 1.5 mM PEP at pCa50 (pCa=6.25). Compounds were dissolved in DMSO (dimethyl sulfoxide). Serial dilution of compounds was created such that the final desired concentration of compound would be achieved in a volume of 150 μL with a fixed DMSO concentration of 2% (v/v). 75 μL of a solution containing bovine cardiac myofibrils, PK/LDH, and calcium were added to a 96 well plate for a 7 point dose-response. In some circumstances, 10 point-response was used to repeat the ATPase assays on compounds of interest. Compounds were added to the myofibrils solution and incubated for 5 minutes. The enzymatic reaction was started with the addition of 75 μL of a solution containing ATP, PEP, NADH, compounds, and calcium. The ATPase activity was measured by reading absorbance at 340 nm in a PerkinElmer Victor Nivo plate reader at 25° C. in kinetic mode for 15 minutes using clear bottom plates. The slopes of the absorbance changes as a function of time for the first 10 minutes were normalized to slopes on the control wells containing all reagents, including DMSO, but without compounds. This normalized rate was then plotted as a function of small molecule concentration in GraphPad prism 9. The data were fitted to a four-parameter fit, and IC50 was calculated using Graphpad Prism 9.
(§2) Bovine skinned cardiac myofibrils were isolated from the frozen bovine left ventricle, and rabbit skinned skeletal myofibrils were isolated from the frozen rabbit Psoas major and minor muscles as myosin's source in the ATPase assay. The calcium concentration that achieves a 50% activation of the myofibril system (pCa=6.25 for bovine cardiac myofibrils and pCa=6 for rabbit skeletal myofibrils) was chosen as the final condition for assessing the activation activity according to the literature (DOI:10.1074/jbc.M117.776815). Rest of ATPase assay conditions are the same as illustrated in experiment 1.

[2] = tested on: rabbit skinned skeletal myofibrils (myosin); experiment: Myosin inhibitory potency comparison: ATPase assay, skeletal myofibrils; assay type: biochemical; conditions: for Skeleta/Cardiac: ratio of skeletal IC50 to cardiac IC50
Description: as §1, §2

[3] = tested on: isolated rat ventricular myocytes; experiment: Cardiomyocyte contractility assay (sarcomere shortening, IonOptix); assay type: cell-based; conditions: for Ratio of % FS 5 uM/15 uM: 5 uM versus 15 uM
Description: The effects of compounds on sarcomere shortening in isolated rat ventricular myocytes were assessed using the IonOptix apparatus.
Myocytes were placed in a chamber mounted on the stage of an inverted microscope and continuously superfused with oxygenated Tyrode solution containing (in millimolar): 121 NaCl, 5 KCl, 2.8 NaCH3CO2, MgCl2·6H2O, Glucose, NaHCO3, Na2HPO4. 7H2O, and 1.5 mM CaCl2). Solution was preheated at 36±1° C. and electrical-field stimulated at 1 Hz by 2 platinum electrodes connected to a Myopacer field stimulator (IonOptix Corporation) with 4 ms square-wave bipolar pulses (10 V). Cells were illuminated by the microscope light. The cell image was collected by a x40 ultraviolet epifluorescence objective, diverted to the microscope side port, where the cell image was recorded by a charge coupled device (CCD) camera (MyoCam, IonOptix Corporation), converting optical brightness (pixels) into electrical signals (voltage). The MyoCam configuration allowed acquisition of up to 240 images per second (240 Hz frame rate). Contractile properties of the myocytes were analyzed in real time by a video detector and a personal computer-based data acquisition system (Ionwizard 6.0, IonOptix Corporation). Only myocytes with clear striations, quiescent prior to pacing with a resting sarcomere length greater or equal to 1.75 μm were used, since this is presumed to represent the lower limit for healthy cells.
Sarcomere shortening was monitored in control solution (predrug) until stable recordings were obtained (baseline period). To determine the response to compounds, myocytes were first superfused for 60 seconds with Tyrode's buffer followed by at least a 5 minute—(or until steady state was reached, up to 10 min) superfusion of compound. Each cell was subjected to 2 concentrations (5 and 15 uM or 5 and 10 uM) of test compounds. For some cells, a washout period was performed after the last concentration. Duration of the washout period was variable, resulting in variability in the washout data. In separate cells, a single concentration of isoproterenol (100 nM) was applied. Data were continuously recorded using the IonOptix software. Contractility data were analyzed using Ionwizard software (IonOptix). For each cell, 10-15 contractility transients at baseline and after treatment were averaged and compared.

[4] = Pharmacokinetic profiles in male SD rats (IV and PO); assay type: in vivo, rat; conditions: IV 1 mg/kg, PO 5 mg/kg, route for this parameter not given; for clearance / half-life / Vd: rat, plasma; for Vd: read-out: VSS
Description: Pharmacokinetic profile of compounds were determined by IV (1 mg/Kg) and PO (5 mg/Kg) administrations in male SD rats. Compounds were administrated with free base and formulated in 5% DMAC+25% PEG-400+70%(30% 2-HP-β-CD in water). The compounds were dosed at 1 mg/kg for intravenous and 5 mg/kg oral administration. Blood samples were collected at 0, 0.083, 0.25, 0.5, 1, 2, 4, 8 and 24 hours post dose, serial bleeding for plasma for the IV group. Blood samples were collected at 0, 0.25, 0.5, 1, 2, 4, 6, 8 and 24 hours post dose, serial bleeding for the PO group. Approximately 150 μL whole blood/time point were collected in K2EDTA tube via jugular vein. Blood sample was put on ice and centrifuged at 2000 g for 5 min to obtain plasma sample within 15 minutes. PK parameters were estimated by non-compartmental model using WinNonlin 8.2.

[5] = tested on: heart function (cardiac contractility); experiment: Echocardiography assessment of acute pharmacodynamic effect in rat cardiac contractility; assay type: in vivo; conditions: Spraw-Dawley rats
Description: The Effect of Compounds on Heart Function was Determined by Echocardiography in Spraw-Dawley rats. Rats were under light anesthesia with 1-2% isoflurane. Compounds were dosed via oral gavage as single PO. Baseline heart functions were measured 1 day before dosing. The effect of compounds on heart function were measured at 1, 3, 6, and 24 hours post dosing. About 250 μL of whole blood was obtained at ˜1, 3, 6 and 24 hours post-dose via tail vein, immediately after the Echocardiography procedure. Blood was placed into a plasma separator tube containing K2 EDTA and kept on wet ice until processing. Blood samples were centrifuged at 2,000 g (4,400 rpm, Eppendorf 5417R) for 10 minutes at 4° C. Plasma samples were then transferred into micro-tubes and stored at −80° C. for future LC/MS analysis. The data were plotted as reduction of Fractional shortening vs plasma compound concentration. Therapeutic windows were determined as IC50/IC10 according to the literature (DOI: https://doi.org/10.1021/acs.jmedchem.1c01290).

[6] = rat ventricular myocytes, paced at 1 Hz

SMILES: CC(C)n1c(=O)nc(N[C@@H](C)C2CCCCC2)[nH]c1=O [Example 45]
IC50 (bovine cardiac myosin): 2.8 µM
IC50 [1]: 7.58 µM
Skeleta/Cardiac [2]: 5.36

SMILES: C[C@H](Nc1nc(=O)n(C2CCOCC2)c(=O)[nH]1)c1ccc(OC(F)(F)F)cc1 [Example 152]
IC50 (bovine cardiac myosin): 1.21 µM
IC50 [1]: 1.79 µM
Skeleta/Cardiac [2]: 2.39
Ratio of % FS 5 uM/15 uM [3]: 2.4
% FS (% reduction from baseline) at 5 uM [3, 6]: 62.9 +/− 6.2%
% FS (% reduction from baseline) at 15uM [3, 6]: 26.7 +/− 6.4%

SMILES: Cc1cccc([C@H](C)Nc2nc(=O)n(C3CCOCC3)c(=O)[nH]2)c1 [Example 4]
IC50 [1]: 0.66 µM
Ratio of % FS 5 uM/10 uM ([3]; 5 uM versus 10 uM (cell marked *)): 1.7*
% FS (% reduction from baseline) at 5 uM [3, 6]: 71.2 +/− 7.6%
% FS (% reduction from baseline) at 10 uM ([3]; 10 uM (cell marked *), rat ventricular myocytes, paced at 1 Hz): 42.4 +/− 4.2* %
DNAUC [4]: 2.2996 µg·h/mL
clearance [4]: 0.33 L/h/kg
half-life [4]: 3.35 h
Vd [4]: 1.17 L/kg

SMILES: C[C@H](Nc1nc(=O)n(C2CCOCC2)c(=O)[nH]1)c1ccc(F)cc1F [Example 10]
IC50 (bovine cardiac myosin): 1.84 µM
IC50 [1]: 1.5 µM
cardiac-skeletal myosin selectivity (in words) [2]: better cardiac-skeletal myosin selectivity
potency in inhibiting fast skeletal myofibril activity (in words) ([2]; compared with cardiac myofibrils): way less potent
Skeleta/Cardiac [2]: 29.01
Ratio of % FS 5 uM/15 uM [3]: 1.2
% FS (% reduction from baseline) at 5 uM [3, 6]: 51 +/− 6%
% FS (% reduction from baseline) at 15uM [3, 6]: 41.5 +/− 6.3%
DNAUC [4]: 1.7247 µg·h/mL
clearance [4]: 0.55 L/h/kg
half-life [4]: 4.51 h
Vd [4]: 1.78 L/kg
effect on heart contractility at 20 mpk (FIG. 2) ([5]; single PO, 20 mpk): do not further inhibit heart contractility at 20 mpk
effect on heart contractility, dose dependence (FIG. 2) ([5]; single PO, up to 10 mpk): dose dependent under 10 mpk
therapeutic window, plasma exposure vs fractional shortening (in words) ([5]; therapeutic window as IC50/IC10): superior therapeutic windows

SMILES: Cc1cc([C@H](C)Nc2nc(=O)n(C3CCOCC3)c(=O)[nH]2)ccc1F [Example 156]
IC50 (bovine cardiac myosin): 1.13 µM
Ratio of % FS 5 uM/15 uM [3]: 2.4
% FS (% reduction from baseline) at 5 uM [3, 6]: 61.5 +/− 5.2%
% FS (% reduction from baseline) at 15uM [3, 6]: 26.1 +/− 4%
DNAUC [4]: 5.0522 µg·h/mL
clearance [4]: 0.19 L/h/kg
half-life [4]: 5.47 h
Vd [4]: 0.97 L/kg

SMILES: Cc1cccc([C@H](C)Nc2nc(=O)n(C3CCCC3)c(=O)[nH]2)c1 [Example 94]
IC50 (bovine cardiac myosin): 1.75 µM

SMILES: O=c1nc(NC2CCc3ccccc32)[nH]c(=O)n1C1CCOCC1 (stereo not shown) [Example 149]
IC50 (bovine cardiac myosin): 5.5 µM

SMILES: CC(Nc1nc(=O)n(C2CCOCC2)c(=O)[nH]1)c1cccc(C2CC2)c1 (stereo not shown) [Example 136]
IC50 (bovine cardiac myosin): 4.98 µM

Now from value to compound, other results behind:

IC50 (bovine cardiac myosin): 0.47 µM
DNAUC [4]: 7.631 µg·h/mL
clearance [4]: 0.15 L/h/kg
half-life [4]: 3.95 h
Vd [4]: 0.57 L/kg
SMILES: C[C@H](Nc1nc(=O)n(C2CCOCC2)c(=O)[nH]1)c1cc(F)cc(Cl)c1 [Example 172]
Ratio of % FS 5 uM/15 uM [3]: 2.2
% FS (% reduction from baseline) at 5 uM [3, 6]: 63.6 +/− 3.3%
% FS (% reduction from baseline) at 15uM [3, 6]: 28.9 +/− 8.7%

IC50 (bovine cardiac myosin): 1.7 µM
DNAUC [4]: 13.4122 µg·h/mL
clearance [4]: 0.08 L/h/kg
half-life [4]: 3.89 h
Vd [4]: 0.32 L/kg
SMILES: Cc1ccc([C@H](C)Nc2nc(=O)n(C3CCOCC3)c(=O)[nH]2)c(C)c1 [Example 168]
Ratio of % FS 5 uM/15 uM [3]: 2.2
% FS (% reduction from baseline) at 5 uM [3, 6]: 54.3 +/− 9.3%
% FS (% reduction from baseline) at 15uM [3, 6]: 24.3 +/− 8.5%

IC50 (bovine cardiac myosin): 6.89 µM
DNAUC [4]: 3.9598 µg·h/mL
clearance [4]: 0.21 L/h/kg
half-life [4]: 4.41 h
Vd [4]: 0.94 L/kg
SMILES: C[C@H](Nc1nc(=O)n(C2CCOCC2)c(=O)[nH]1)c1cccc(C(F)(F)F)c1 [Example 252]

IC50 (bovine cardiac myosin): 0.2 µM
DNAUC [4]: 11.4634 µg·h/mL
clearance [4]: 0.1 L/h/kg
half-life [4]: 4.58 h
Vd [4]: 0.46 L/kg
SMILES: C[C@H](Nc1nc(=O)n(C2CCOCC2)c(=O)[nH]1)c1ccc(Cl)c(Cl)c1 [Example 165]

DNAUC [4]: 4.1951 µg·h/mL
clearance [4]: 0.25 L/h/kg
half-life [4]: 3.74 h
Vd [4]: 0.97 L/kg
SMILES: C[C@H](Nc1nc(=O)n(C2CCOCC2)c(=O)[nH]1)c1ccc(F)cc1Cl [Example 162]
Ratio of % FS 5 uM/15 uM [3]: 1.9
% FS (% reduction from baseline) at 5 uM [3, 6]: 60.8 +/− 12.7%
% FS (% reduction from baseline) at 15uM [3, 6]: 32.2 +/− 5.3%
